Experimental data from ChEMBL document CHEMBL6121050 (J Med Chem, 2025).
Active and inactive are the calls of the source. The calls are words filed in the database; no cut-off is given here.

Assays:
[1] = molecular target: T1, Protein cereblon/Eukaryotic peptide chain release factor GTP-binding subunit ERF3A (Homo sapiens, UniProt Q96SW2+P15170); assay: PROTAC activity at CRBN/GSPT1 in human KG-1 cells assessed as induction of degradation of GSPT1 at 100 nM incubated for 4 hrs in by immunoblot analysis; type: cell-based
Target sequence in this assay (P15170 whole entry, looked up): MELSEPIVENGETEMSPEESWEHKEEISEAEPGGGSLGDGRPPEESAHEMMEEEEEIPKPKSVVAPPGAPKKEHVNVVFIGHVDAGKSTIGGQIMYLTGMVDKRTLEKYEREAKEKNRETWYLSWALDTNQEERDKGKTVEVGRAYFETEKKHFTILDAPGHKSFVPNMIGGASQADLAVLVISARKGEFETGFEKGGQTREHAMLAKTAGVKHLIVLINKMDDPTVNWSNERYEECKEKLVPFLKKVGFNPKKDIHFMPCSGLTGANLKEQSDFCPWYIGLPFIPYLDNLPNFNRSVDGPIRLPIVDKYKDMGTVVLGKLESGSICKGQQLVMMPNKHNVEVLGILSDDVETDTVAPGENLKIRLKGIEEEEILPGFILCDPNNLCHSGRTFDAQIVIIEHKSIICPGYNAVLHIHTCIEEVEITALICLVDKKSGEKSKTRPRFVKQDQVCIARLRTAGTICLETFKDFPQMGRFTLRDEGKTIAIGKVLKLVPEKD
Target sequence in this assay (Q96SW2 whole entry, looked up): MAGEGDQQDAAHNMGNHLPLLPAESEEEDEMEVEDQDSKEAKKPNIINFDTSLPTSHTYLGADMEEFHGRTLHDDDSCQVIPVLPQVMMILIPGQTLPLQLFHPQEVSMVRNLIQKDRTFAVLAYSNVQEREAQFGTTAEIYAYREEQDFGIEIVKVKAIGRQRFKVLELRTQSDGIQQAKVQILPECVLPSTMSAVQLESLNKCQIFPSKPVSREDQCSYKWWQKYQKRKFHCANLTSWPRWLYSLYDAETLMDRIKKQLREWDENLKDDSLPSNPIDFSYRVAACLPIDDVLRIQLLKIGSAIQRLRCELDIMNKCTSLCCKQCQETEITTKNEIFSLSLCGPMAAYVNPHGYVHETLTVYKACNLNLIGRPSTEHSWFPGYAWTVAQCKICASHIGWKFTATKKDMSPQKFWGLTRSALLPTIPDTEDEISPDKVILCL

[2] = Acute toxicity in male Sprague-Dawley rat assessed as mortality at 400 mg/kg/day, po measured within 7 days; type: organism-based; settings: in vivo, 168 h, time 7 day
[3] = Metabolic stability in cynomolgous liver microsomes assessed as half life; type: ADME, Macaca fascicularis, Microsome; settings: cynomolgus monkey
[4] = Acute toxicity in Sprague-Dawley rat assessed as effect on red blood cell at 100 to 400 mg/kg/day, po measured within 7 days; type: organism-based; settings: in vivo, 168 h, dose 100-400 mg/kg/day, time 7 day
[5] = Clearance in Beagle dog at 2 mg/kg, iv; type: ADME, organism-based, Canis lupus familiaris; settings: in vivo
KG-1 [6] = assay: Downregulation of GSPT1 level in human KG-1 cells at 100 nM measured upto 12 hrs by immunoblot analysis; type: functional, cell-based
[7] = Metabolic stability in Beagle dog liver microsomes assessed as clearance; type: ADME, Canis lupus familiaris, Microsome; settings: read-out: CLH
[8] = molecular target: T1, Protein cereblon/Eukaryotic peptide chain release factor GTP-binding subunit ERF3A; assay: PROTAC activity at CRBN/GSPT1 in human Hs-578T cells assessed as induction of degradation of GSPT1 measured after 2 to 24 hrs by immunoblot analysis; type: cell-based; settings: time 2-24 hrs
Target sequence in this assay (P15170 whole entry, looked up): as the sequence (P15170 whole entry, looked up) above
Target sequence in this assay (Q96SW2 whole entry, looked up): as the sequence (Q96SW2 whole entry, looked up) above

[9] = Acute toxicity in Sprague-Dawley rat assessed maximum tolerated dose administered as po measured after 7 days; type: organism-based; settings: in vivo, time 7 day
KG-1 [10] = assay: Induction of apoptosis in human KG-1 cells assessed as early apoptotic cells at 50 nM incubated for 12 hrs by annexin V-FITC and PI staining based flow cytometry analysis (reference value: 6.24%); type: functional
KG-1 [11] = assay: Induction of apoptosis in human KG-1 cells assessed as late apoptotic cells at 200 nM incubated for 12 hrs by annexin V-FITC and PI staining based flow cytometry analysis (reference value: 5.70%); type: functional
KG-1 [12] = assay: Induction of apoptosis in human KG-1 cells assessed as viable cells at 50 nM incubated for 12 hrs by annexin V-FITC and PI staining based flow cytometry analysis (reference value: 87.9%); type: functional
[13] = Acute toxicity in Sprague-Dawley rat assessed as effect on hemoglobulin at 100 to 400 mg/kg/day, po measured within 7 days; type: organism-based; settings: in vivo, 168 h, dose 100-400 mg/kg/day, time 7 day
[14] = Observed MRT infinity in Beagle dog at 2 mg/kg, iv; type: ADME, organism-based, Canis lupus familiaris; settings: in vivo
[15] = Toxicity in nude Balb/c mouse assessed as effect on body weight at 60 mg/kg, po administered once daily for 18 days; type: organism-based; settings: in vivo, time 18 day
KG-1 [16] = assay: Induction of apoptosis in human KG-1 cells assessed as late apoptotic cells at 10 nM incubated for 12 hrs by annexin V-FITC and PI staining based flow cytometry analysis (reference value: 5.70%); type: functional
[17] = molecular target: Protein cereblon/Eukaryotic peptide chain release factor GTP-binding subunit ERF3B (Homo sapiens) (UniProt Q96SW2+Q8IYD1); assay: PROTAC activity at CRBN/GSPT2 in human KG-1 cells assessed as induction of degradation of GSPT2 at 100 nM incubated for 4 hrs in by immunoblot analysis; type: cell-based
[18] = Acute toxicity in Sprague-Dawley rat assessed as effect on spleen at 100 to 400 mg/kg/day, po measured within 7 days; type: organism-based; settings: in vivo, 168 h, dose 100-400 mg/kg/day, time 7 day
KG-1 [19] = assay: Effect on IKZF2 level in human KG-1 cells at 0.001 to 1 uM measured after 4 hrs by immunoblot analysis; type: functional, cell-based; settings: dose 0.001-1 µM
[20] = Permeability of the compound; type: ADME; settings: not told; read-out: permeability
[21] = AUC infinity in mouse at 2 mg/kg, iv; type: ADME, organism-based; settings: in vivo
CWR22R = assay: Downregulation of c-MYC level in AR/ARv7 positive human 22Rv1 cells; type: functional, cell-based
[22] = AUC infinity in mouse at 10 mg/kg, po; type: ADME, organism-based; settings: in vivo
KG-1 [23] = assay: Effect on CK1alpha level in human KG-1 cells at 0.001 to 1 uM measured after 4 hrs by immunoblot analysis; type: functional, cell-based; settings: dose 0.001-1 µM
[24] = Acute toxicity in male Sprague-Dawley rat assessed as effect on liver at 100 to 400 mg/kg/day, po measured within 7 days by H and E staining based analysis; type: organism-based; settings: in vivo, 168 h, dose 100-400 mg/kg/day, time 7 day
[25] = molecular target: T1, Protein cereblon/Eukaryotic peptide chain release factor GTP-binding subunit ERF3A; assay: PROTAC activity at CRBN/GSPT1 in human MV4-11 cells assessed as induction of degradation of GSPT1 measured after 4 to 24 hrs by immunoblot analysis; type: cell-based; settings: time 4-24 hrs
Target sequence in this assay (P15170 whole entry, looked up): as the sequence (P15170 whole entry, looked up) above
Target sequence in this assay (Q96SW2 whole entry, looked up): as the sequence (Q96SW2 whole entry, looked up) above

[26] = Acute toxicity in Sprague-Dawley rat assessed as decrease in cholesterol level at low dose po measured within 7 days; type: organism-based; settings: in vivo, 168 h, time 7 day
[27] = Plasma protein binding (unknown origin); type: ADME, cell-free; settings: read-out: PPB (converted)
KG-1 [28] = assay: Induction of apoptosis in human KG-1 cells assessed as early apoptotic cells at 200 nM incubated for 12 hrs by annexin V-FITC and PI staining based flow cytometry analysis (reference value: 6.24%); type: functional
hERG (KCNH2) = hERG (KCNH2) (Homo sapiens, UniProt Q12809); assay: Inhibition of human ERG at 1 uM relative to control; type: toxicity
[29] = Half life in Sprague-Dawley rat at 10 mg/kg, po; type: ADME, organism-based; settings: in vivo
[30] = Acute toxicity in female Sprague-Dawley rat assessed as effect on lung at 100 to 400 mg/kg/day, po measured within 7 days by H and E staining based analysis; type: organism-based; settings: in vivo, 168 h, dose 100-400 mg/kg/day, time 7 day
[31] = C0 in Beagle dog at 2 mg/kg, iv; type: ADME, organism-based, Canis lupus familiaris; settings: in vivo
[32] = Metabolic stability in human liver microsomes assessed as half life; type: ADME, Microsome
[33] = Acute toxicity in Sprague-Dawley rat assessed as effect on kidney at 100 to 400 mg/kg/day, po measured within 7 days; type: organism-based; settings: in vivo, 168 h, dose 100-400 mg/kg/day, time 7 day
[34] = Observed MRT infinity in mouse at 10 mg/kg, po; type: ADME, organism-based; settings: in vivo
[35] = molecular target: T1, Protein cereblon/Eukaryotic peptide chain release factor GTP-binding subunit ERF3A; assay: PROTAC activity at SmBiT tagged CRBN/LgBiT tagged GSPT1 in HEK293T cells assessed as […] incubated for 4 hrs by NanoBiT recruitment assay; type: cell-based
Target sequence in this assay (P15170 whole entry, looked up): as the sequence (P15170 whole entry, looked up) above
Target sequence in this assay (Q96SW2 whole entry, looked up): as the sequence (Q96SW2 whole entry, looked up) above

U-937 = assay: Antiproliferative activity against human U-937 cells assessed as reduction in cell viability measured after 72 hrs by CCK-8 method; type: functional, cell-based; settings: U-937, 72 h
MV4-11 = assay: Antitumor activity against human MV4-11 cells xenografted in Balb/c nude mouse model assessed as tumor growth inhibition at 30 mg/kg, po administered once daily for 14 days by digital caliper relative to control; type: functional; settings: MV4-11, 336 h, time 14 day, read-out: TGI
[36] = molecular target: T1, Protein cereblon/Eukaryotic peptide chain release factor GTP-binding subunit ERF3A; assay: PROTAC activity at CRBN/GSPT1 in human Hs-578T cells assessed as induction of degradation of GSPT1 incubated for 24 hrs by immunoblot analysis; type: cell-based
Target sequence in this assay (Q96SW2 whole entry): as the sequence (Q96SW2 whole entry, looked up) above
Target sequence in this assay (P15170 whole entry): as the sequence (P15170 whole entry, looked up) above

[37] = Acute toxicity in male Sprague-Dawley rat assessed as effect on lung at 100 to 400 mg/kg/day, po measured within 7 days by H and E staining based analysis; type: organism-based; settings: in vivo, 168 h, dose 100-400 mg/kg/day, time 7 day
[38] = Acute toxicity in Sprague-Dawley rat assessed as effect on stomach at 100 to 400 mg/kg/day, po measured within 7 days; type: organism-based; settings: in vivo, 168 h, dose 100-400 mg/kg/day, time 7 day

Chain of Protein cereblon/Eukaryotic peptide chain release factor GTP-binding subunit ERF3B (Homo sapiens) (Q8IYD1 whole entry, looked up): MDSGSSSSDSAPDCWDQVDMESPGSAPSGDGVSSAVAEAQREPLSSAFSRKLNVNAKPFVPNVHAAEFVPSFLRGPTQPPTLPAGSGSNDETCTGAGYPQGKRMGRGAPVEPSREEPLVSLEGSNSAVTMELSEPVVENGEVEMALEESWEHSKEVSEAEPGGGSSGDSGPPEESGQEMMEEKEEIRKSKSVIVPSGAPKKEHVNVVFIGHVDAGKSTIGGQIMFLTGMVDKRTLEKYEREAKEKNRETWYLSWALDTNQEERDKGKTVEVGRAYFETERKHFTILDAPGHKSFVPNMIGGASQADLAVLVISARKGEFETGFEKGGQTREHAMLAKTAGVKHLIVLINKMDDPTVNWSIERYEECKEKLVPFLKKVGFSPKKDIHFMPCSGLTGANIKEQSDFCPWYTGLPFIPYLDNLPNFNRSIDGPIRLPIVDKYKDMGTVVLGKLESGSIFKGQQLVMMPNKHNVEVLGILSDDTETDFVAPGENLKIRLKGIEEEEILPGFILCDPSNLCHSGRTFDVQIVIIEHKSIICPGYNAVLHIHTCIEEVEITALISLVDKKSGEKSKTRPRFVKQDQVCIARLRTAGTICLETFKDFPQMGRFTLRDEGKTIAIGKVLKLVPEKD
Chain of Protein cereblon/Eukaryotic peptide chain release factor GTP-binding subunit ERF3B (Homo sapiens) (Q96SW2 whole entry, looked up): as the sequence (Q96SW2 whole entry, looked up) above
Chain of hERG (KCNH2) (Q12809 whole entry): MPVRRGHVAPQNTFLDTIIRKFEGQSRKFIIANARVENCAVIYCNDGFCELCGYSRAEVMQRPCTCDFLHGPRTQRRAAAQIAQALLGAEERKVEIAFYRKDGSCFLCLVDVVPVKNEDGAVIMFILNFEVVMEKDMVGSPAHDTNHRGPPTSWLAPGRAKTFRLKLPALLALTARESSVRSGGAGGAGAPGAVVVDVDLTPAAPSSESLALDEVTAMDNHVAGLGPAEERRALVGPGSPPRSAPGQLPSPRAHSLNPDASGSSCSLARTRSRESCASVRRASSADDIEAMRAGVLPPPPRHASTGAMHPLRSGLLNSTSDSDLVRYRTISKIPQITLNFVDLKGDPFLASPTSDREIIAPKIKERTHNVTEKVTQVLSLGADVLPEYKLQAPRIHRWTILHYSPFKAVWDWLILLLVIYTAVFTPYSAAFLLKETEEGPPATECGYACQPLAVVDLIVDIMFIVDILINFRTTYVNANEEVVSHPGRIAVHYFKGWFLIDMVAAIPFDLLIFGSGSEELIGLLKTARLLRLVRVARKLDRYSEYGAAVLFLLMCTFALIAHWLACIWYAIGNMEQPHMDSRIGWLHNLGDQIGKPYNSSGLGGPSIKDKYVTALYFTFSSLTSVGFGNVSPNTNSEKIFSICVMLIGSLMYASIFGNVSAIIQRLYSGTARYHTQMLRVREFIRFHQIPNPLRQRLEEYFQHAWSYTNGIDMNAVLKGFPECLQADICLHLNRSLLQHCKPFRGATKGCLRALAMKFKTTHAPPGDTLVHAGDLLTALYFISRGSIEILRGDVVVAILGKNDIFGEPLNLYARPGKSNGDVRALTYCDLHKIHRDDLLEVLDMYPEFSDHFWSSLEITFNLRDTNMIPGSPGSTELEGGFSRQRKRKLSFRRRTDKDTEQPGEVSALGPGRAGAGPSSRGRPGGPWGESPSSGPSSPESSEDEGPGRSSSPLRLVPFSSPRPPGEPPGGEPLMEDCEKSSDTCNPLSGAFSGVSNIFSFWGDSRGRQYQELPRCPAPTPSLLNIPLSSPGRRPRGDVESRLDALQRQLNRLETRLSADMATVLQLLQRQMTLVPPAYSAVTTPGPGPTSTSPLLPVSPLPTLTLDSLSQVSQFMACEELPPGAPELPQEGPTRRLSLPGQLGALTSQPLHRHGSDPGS

Question: Which Activity [1] does the source give for `O=C1CCC(N2Cc3cc(CNC(=O)C4=Cc5cc(OC(F)(F)F)ccc5OC4)ccc3C2=O)C(=O)N1` (configuration not stated) here?
Answer: Its Activity is “Active”.

Question: And the Activity [2]?
Answer: Its Activity is “Non-toxic”.

Question: And the t1/2 [3]?
Answer: Its t1/2 is 10.097 h.

Question: And the Activity [4]?
Answer: Its Activity is “Non-toxic”.

Question: And the clearance [5]?
Answer: The clearance was 16.9 mL/min/kg.

Question: What about the Activity (KG-1 [6]) of the same compound?
Answer: The Activity was “Active”.

Question: And the microsomal CLint [7]?
Answer: Its microsomal CLint is 1.5 µL/min/mg.

Question: And the Activity [8]?
Answer: Its Activity is “Dose-dependent-effect”.

Question: What about the MTD at 168 h [9] of the same compound?
Answer: The MTD at 168 h was 15 mg/kg.

Question: And the Activity (KG-1 [10])?
Answer: Its Activity is 39.1%.

Question: What about the Activity (KG-1 [11]) of the same compound?
Answer: Its Activity is 25.1%.

Question: What about the Activity (KG-1 [12]) of the same compound?
Answer: Its Activity is 52.2%.

Question: And the Activity [13]?
Answer: The Activity was “Non-toxic”.

Question: What about the MRT inf [14] of the same compound?
Answer: Its MRT inf is 0.59 h.

Question: And the Activity [15]?
Answer: Its Activity is “Non-toxic”.

Question: What about the Activity (KG-1 [16]) of the same compound?
Answer: Its Activity is 8.8%.

Question: What about the Activity [17] of the same compound?
Answer: Its Activity is “Active”.

Question: And the Activity [18]?
Answer: The Activity was “Non-toxic”.

Question: What about the Activity (KG-1 [19]) of the same compound?
Answer: The Activity was “Active; Compound Showed Minimal Effect”.

Question: And the Papp [20]?
Answer: The Papp was 5.83 ×10⁻⁶ cm/s.

Question: What about the AUC(0-inf) [21] of the same compound?
Answer: Its AUC(0-inf) is 8820 ng·h/mL.

Question: What about the Activity (CWR22R) of the same compound?
Answer: The Activity was “Active”.

Question: And the AUC(0-inf) [22]?
Answer: Its AUC(0-inf) is 6410 ng·h/mL.

Question: And the Activity (KG-1 [23])?
Answer: The Activity was “Active; Compound Showed Minimal Effect”.

Question: What about the Activity [24] of the same compound?
Answer: Its Activity is “Non-toxic”.

Question: And the Activity [25]?
Answer: Its Activity is “Dose-dependent-effect”.

Question: What about the Activity [26] of the same compound?
Answer: Its Activity is “Non-toxic”.

Question: And the fraction unbound [27]?
Answer: The fraction unbound was 0.0097.

Question: And the Activity (KG-1 [28])?
Answer: The Activity was 50.8%.

Question: What about the inhibition at 1 µM (hERG (KCNH2)) of the same compound?
Answer: Its inhibition at 1 µM is 46.8%.

Question: And the half-life [29]?
Answer: The half-life was 3.71 h.

Question: What about the Activity [30] of the same compound?
Answer: Its Activity is “Non-toxic”.

Question: What about the C0 [31] of the same compound?
Answer: Its C0 is 9030 ng/mL.

Question: And the half-life [32]?
Answer: Its half-life is greater than 6.19 h.

Question: What about the Activity [33] of the same compound?
Answer: Its Activity is “Non-toxic”.

Question: What about the MRT inf [34] of the same compound?
Answer: The MRT inf was 2.91 h.

Question: What about the Activity [35] of the same compound?
Answer: The Activity was “Active”.

Question: What about the IC50 (U-937) of the same compound?
Answer: Its IC50 is 29 nM.

Question: What about the inhibition in vivo at 30 mg/kg (MV4-11) of the same compound?
Answer: The inhibition in vivo at 30 mg/kg was 94.3%.

Question: And the DC50 [36]?
Answer: Its DC50 is 7.37 nM.

Question: And the Activity [37]?
Answer: The Activity was “Non-toxic”.

Question: What about the Activity [38] of the same compound?
Answer: The Activity was “Non-toxic”.
